pEC50: −log10 of the molar value.
Columns and labels:
human PPAR alpha = target: T1, human PPAR alpha (Homo sapiens, UniProt Q07869); test: Transient transfection (transactivation) assay in CV-1 cells, hPPAR alpha; type: cell-based; settings: PPAR transactivation activity; GAL4-PPAR LBD chimera in CV-1 cells; concentration achieving 50% of maximum activity; read-out: human αEC50
T1 construct: expressed in transfected cells; host or cells: CV-1 cells
T1 sequence (Q07869 239-466 limits assumed): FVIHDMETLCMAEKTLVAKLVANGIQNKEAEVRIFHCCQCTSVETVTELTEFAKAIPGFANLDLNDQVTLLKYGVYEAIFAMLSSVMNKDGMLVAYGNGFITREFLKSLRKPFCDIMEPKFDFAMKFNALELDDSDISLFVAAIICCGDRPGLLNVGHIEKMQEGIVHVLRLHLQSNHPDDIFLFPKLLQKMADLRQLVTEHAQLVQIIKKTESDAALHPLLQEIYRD
Excerpt: (§1) Most preferably, the compounds of formula (I) are selective hPPARalpha agonists. As used herein, a “selective hPPAR alpha agonist” is a hPPARalpha agonist whose EC50 for PPARalpha is at least 10 fold lower than its EC50 for PPAR gamma and PPAR delta. […] Most preferred compounds are greater than 100-fold selective hPPARalpha agonists (see Table 1).
(§2) Compounds were screened for functional potency in transient transfection assays in CV-1 cells for their ability to activate the PPAR subtypes (transactivation assay). A previously established chimeric receptor system was utilized to allow comparison of the relative transcriptional activity of the receptor subtypes on the same target gene and to prevent endogenous receptor activation from complicating the interpretation of results. See, for example, Lehmann, J. M.; Moore, L. B.; Smith-Oliver, T. A.; Wilkison, W. O.; Willson, T. M.; Kliewer, S. A., An antidiabetic thiazolidinedione is a high affinity ligand for peroxisome proliferator-activated receptor γ (PPARγ), J. Biol. Chem., 1995, 270, 12953–6. The ligand binding domains for murine and human PPAR alpha, PPAR gamma, and PPAR delta were each fused to the yeast transcription factor GAL4 DNA binding domain. […]

human PPAR delta = target: T2, human PPAR delta (Homo sapiens, UniProt Q03181); test: Transient transfection (transactivation) assay in CV-1 cells, hPPAR delta; type: cell-based; settings: PPAR transactivation activity; GAL4-PPAR LBD chimera in CV-1 cells; concentration achieving 50% of maximum activity; read-out: human δEC50
T2 construct: expressed in transfected cells; host or cells: CV-1 cells
T2 sequence (Q03181 211-439 limits assumed): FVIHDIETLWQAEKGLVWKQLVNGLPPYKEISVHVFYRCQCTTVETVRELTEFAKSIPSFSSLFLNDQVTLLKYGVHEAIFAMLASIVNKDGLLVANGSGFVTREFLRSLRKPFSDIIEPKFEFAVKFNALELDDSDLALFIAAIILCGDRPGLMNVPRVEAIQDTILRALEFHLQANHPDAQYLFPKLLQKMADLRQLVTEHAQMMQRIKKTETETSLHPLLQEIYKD
Excerpt: as §1, §2

human PPAR gamma = target: T3, human PPAR gamma (Homo sapiens, UniProt P37231); test: Transient transfection (transactivation) assay in CV-1 cells, hPPAR gamma; type: cell-based; settings: PPAR transactivation activity; GAL4-PPAR LBD chimera in CV-1 cells; concentration achieving 50% of maximum activity; read-out: human γEC50
T3 construct: expressed in transfected cells; host or cells: CV-1 cells
T3 sequence (P37231 238-503 limits assumed): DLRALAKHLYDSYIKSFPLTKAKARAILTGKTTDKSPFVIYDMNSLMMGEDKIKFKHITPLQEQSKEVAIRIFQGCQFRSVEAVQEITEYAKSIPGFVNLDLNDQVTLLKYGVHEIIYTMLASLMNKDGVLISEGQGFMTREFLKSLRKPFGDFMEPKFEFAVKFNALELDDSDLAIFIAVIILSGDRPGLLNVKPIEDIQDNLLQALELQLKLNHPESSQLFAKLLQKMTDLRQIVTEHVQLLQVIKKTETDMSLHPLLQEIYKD
Excerpt: as §1, §2

| pEC50 (human PPAR alpha) | pEC50 (human PPAR delta) | pEC50 (human PPAR gamma) | melting point | SMILES |
| --- | --- | --- | --- | --- |
| 8.70 | 5.49 | 5.59 | – | Cc1nc(-c2ccc(C(F)(F)F)cc2)sc1COc1cccc(COC(C)(C)C(=O)O)c1 [Example 2, 2-methyl-2-{(3-[4-methyl-2-(4-trifluoromethylphenyl)thiazol-5-yl]methoxy)benzyloxy}propionic acid] |
| 8.00 | 5.80 | 5.44 | – | Cc1nc(-c2ccc(C(F)(F)F)cc2)sc1COc1cccc(CSCC(=O)O)c1 [Example 4, 2-{[(3-[4-methyl-2-(4-trifluoromethylphenyl)thiazol-5-yl]methoxy)benzyl]thio}acetic acid] |
| – | – | – | 121 °C | Cc1nc(-c2ccc(C(F)(F)F)cc2)sc1COc1cccc(COCC(=O)O)c1 [Example 6, 2-{(3-[4-methyl-2-(4-trifluoromethylphenyl)thiazol-5-yl]methoxy)benzyloxy}acetic acid] |
| – | – | – | 136 °C | Cc1nc(-c2ccc(C(F)(F)F)cc2)sc1C(C)(C)Oc1cccc(COC(C)(C)C(=O)O)c1 [Example 10, 2-methyl-2-[3-{1-methyl-1-[4-methyl-2-(4-trifluoromethylphenyl)thiazol-5-yl]ethoxy}benzyloxy]propionic acid] |

From patent US7091225B2, “Substituted oxazoles and thiazoles as hPPAR alpha agonists” (SmithKline Beecham Corporation, priority 2000, dated 2006)
